Assay results published in patent US20250230193A1, “CYCLIC COMPOUND HAVING SELECTIVE KRAS INHIBITORY EFFECT ON HRAS AND NRAS” (CHUGAI SEIYAKU KABUSHIKI KAISHA, priority 2022, published 2025).

Experiments:
[1] = biological target: GDP-bound HRAS wild-type protein (Homo sapiens, UniProt P01112); assay: Binding to HRAS by surface plasmon resonance (SPR), Single Cycle Kinetics; conditions: KD ratio HRAS/KRAS, SPR
[2] = biological target: GDP-bound NRAS wild-type protein (Homo sapiens, UniProt P01111); assay: Binding to NRAS by surface plasmon resonance (SPR), Single Cycle Kinetics; conditions: KD ratio NRAS/KRAS, SPR
Chain of GDP-bound NRAS wild-type protein (P01111 whole entry): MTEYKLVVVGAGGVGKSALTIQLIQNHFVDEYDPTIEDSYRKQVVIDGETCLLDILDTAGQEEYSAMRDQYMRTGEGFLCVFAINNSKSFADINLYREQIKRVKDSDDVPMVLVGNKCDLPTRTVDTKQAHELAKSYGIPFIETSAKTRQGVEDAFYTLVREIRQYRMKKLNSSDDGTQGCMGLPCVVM

Chain of GDP-bound HRAS wild-type protein (P01112 whole entry): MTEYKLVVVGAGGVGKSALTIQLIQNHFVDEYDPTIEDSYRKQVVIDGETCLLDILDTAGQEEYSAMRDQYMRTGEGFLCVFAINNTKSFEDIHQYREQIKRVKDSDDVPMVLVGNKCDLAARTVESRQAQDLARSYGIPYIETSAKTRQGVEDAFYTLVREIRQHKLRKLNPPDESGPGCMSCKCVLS

SMILES | HRAS/KRAS (ratio of KD value with respect to GDP-bound HRAS wild-type protein to KD value with respect to KRAS) [1] | NRAS/KRAS (ratio of KD value with respect to GDP-bound NRAS wild-type protein to KD value with respect to KRAS) [2]
CCO[C@@H]1C[C@H]2C(=O)NC3(CCC3)C(=O)N(C)[C@@H](C3CCCC3)C(=O)N(C)[C@H](C(=O)N(C)C)CC(=O)N(C)[C@@H](CC(C)C)C(=O)N[C@@H]([C@@H](C)CC)C(=O)N(C)CC(=O)N(C)[C@H]3CCCCCN(C3=O)[C@@H](Cc3ccc(C(F)(F)F)cc3)C(=O)N(C)CC(=O)N[C@@H](CCc3cc(F)c(C(F)(F)F)c(F)c3)C(=O)N2C1 [PP0469] | B (a compound having 3 or more and less than 10 is denoted as B) | B (a compound having 3 or more and less than 10 is denoted as B)
CC[C@H](C)[C@@H]1NC(=O)[C@H](C)N(C)C(=O)C[C@@H](C(=O)N(C)C)N(C)C(=O)[C@H](C2CCCC2)N(C)C(=O)C2(CCC2)NC(=O)[C@@H]2CCCN2C(=O)[C@H](CCc2cc(F)c(C(F)(F)F)c(F)c2)NC(=O)CN(C)C(=O)[C@H](Cc2ccc(C(F)(F)F)cc2)N2CCCCC[C@@H](C2=O)N(C)C(=O)CN(C)C1=O [PP0470] | B (a compound having 3 or more and less than 10 is denoted as B) | B (a compound having 3 or more and less than 10 is denoted as B)
CC[C@H](C)[C@@H]1NC(=O)[C@H](C)N(C)C(=O)C[C@@H](C(=O)N2CCOCC2)N(C)C(=O)[C@H](C2CCCC2)N(C)C(=O)C2(CCC2)NC(=O)[C@@H]2CC(F)(F)CN2C(=O)[C@H](CCc2cc(F)c(C(F)(F)F)c(F)c2)NC(=O)CN(C)C(=O)[C@H](Cc2ccc(C(F)(F)F)cc2)N2CCCCC[C@@H](C2=O)N(C)C(=O)CN(C)C1=O [PP0471] | B (a compound having 3 or more and less than 10 is denoted as B) | B (a compound having 3 or more and less than 10 is denoted as B)
CC[C@H](C)[C@@H]1NC(=O)[C@H](C)N(C)C(=O)C[C@@H](C(=O)N(C)C)N(C)C(=O)[C@H](C2CCCC2)N(C)C(=O)C2(CCCC2)NC(=O)[C@@H]2CC(F)(F)CN2C(=O)[C@H](CCc2cc(F)c(C(F)(F)F)c(F)c2)NC(=O)CN(C)C(=O)[C@H](Cc2ccc(C(F)(F)F)cc2)N2CCCCC[C@@H](C2=O)N(C)C(=O)CN(C)C1=O [PP0472] | B (a compound having 3 or more and less than 10 is denoted as B) | B (a compound having 3 or more and less than 10 is denoted as B)
CC[C@H](C)[C@@H]1NC(=O)[C@H](C)N(C)C(=O)C[C@@H](C(=O)N(C)C)N(C)C(=O)[C@H](C2CCCC2)N(C)C(=O)C2(CCC2)NC(=O)[C@@H]2CC(F)(F)CN2C(=O)[C@H](CCc2cc(F)c(C(F)(F)F)c(F)c2)NC(=O)CN(C)C(=O)[C@H](Cc2ccc(C(F)(F)F)cc2)N2CCCCC[C@@H](C2=O)N(C)C(=O)CN(C)C1=O [PP0473] | C (A compound having a KD ratio of 0.1 or more and less than 3 is denoted as C) | C (A compound having a KD ratio of 0.1 or more and less than 3 is denoted as C)
CCO[C@@H]1C[C@H]2C(=O)NC3(CCC3)C(=O)N(C)[C@@H](C3CCCC3)C(=O)N(C)[C@H](C(=O)N3CCOCC3)CC(=O)N(C)[C@@H](C)C(=O)N[C@@H]([C@@H](C)CC)C(=O)N(C)CC(=O)N(C)[C@H]3CCCCCN(C3=O)[C@@H](Cc3ccc(C(F)(F)F)cc3)C(=O)N(C)CC(=O)N[C@@H](CCc3cc(F)c(C(F)(F)F)c(F)c3)C(=O)N2C1 [PP0474] | B (a compound having 3 or more and less than 10 is denoted as B) | B (a compound having 3 or more and less than 10 is denoted as B)
CCO[C@@H]1C[C@H]2C(=O)NC3(CCCC3)C(=O)N(C)[C@@H](C3CCCC3)C(=O)N(C)[C@H](C(=O)N(C)C)CC(=O)N(C)[C@@H](C)C(=O)N[C@@H]([C@@H](C)CC)C(=O)N(C)CC(=O)N(C)[C@H]3CCCCCN(C3=O)[C@@H](Cc3ccc(C(F)(F)F)cc3)C(=O)N(C)CC(=O)N[C@@H](CCc3cc(F)c(C(F)(F)F)c(F)c3)C(=O)N2C1 [PP0475] | B (a compound having 3 or more and less than 10 is denoted as B) | B (a compound having 3 or more and less than 10 is denoted as B)
CCO[C@@H]1C[C@H]2C(=O)NC3(CCC3)C(=O)N(C)[C@@H](C3CCCC3)C(=O)N(C)[C@H](C(=O)N(C)C)CC(=O)N(C)[C@@H](C)C(=O)N[C@@H]([C@@H](C)CC)C(=O)N(C)CC(=O)N(C)[C@H]3CCCCCN(C3=O)[C@@H](Cc3ccc(C(F)(F)F)cc3)C(=O)N(C)CC(=O)N[C@@H](CCc3cc(F)c(C(F)(F)F)c(F)c3)C(=O)N2C1 [PP0476] | B (a compound having 3 or more and less than 10 is denoted as B) | B (a compound having 3 or more and less than 10 is denoted as B)
